# Measured values: patent US20160193240A1, “Ulmoside-A: Useful For Prevention Or Cure Of Metabolic Diseases” (COUNCIL OF SCIENTIFIC & INDUSTRIAL RESEARCH, priority 2013, published 2016)
# What was measured:
# [1] = target: T1, AdipoR1 (Homo sapiens, UniProt Q96A54); assay: Radio-ligand saturation binding assay with 125I-ULMA, CHO cells transfected with AdipoR1
# T1 construct: expressed in transfected cells; host or cells: Chinese Hamster Ovary cells (ECACC 85050302), transient transfection with Lipofectamine LTX
# T1 sequence (Q96A54 1-375): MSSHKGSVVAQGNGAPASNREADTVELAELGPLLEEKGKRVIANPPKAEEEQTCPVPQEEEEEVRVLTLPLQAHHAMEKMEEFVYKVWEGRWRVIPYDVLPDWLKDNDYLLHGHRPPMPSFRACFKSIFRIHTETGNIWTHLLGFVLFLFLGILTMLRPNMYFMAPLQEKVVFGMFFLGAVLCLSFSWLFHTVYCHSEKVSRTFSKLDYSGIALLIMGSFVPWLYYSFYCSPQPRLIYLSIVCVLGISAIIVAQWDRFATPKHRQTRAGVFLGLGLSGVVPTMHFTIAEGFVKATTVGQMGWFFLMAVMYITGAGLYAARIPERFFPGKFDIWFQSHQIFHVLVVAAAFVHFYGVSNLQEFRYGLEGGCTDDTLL
# Protocol: D. CHO cells transfected with empty vector or AdipoR1 or R2 expression vectors were incubated with various concentrations of ^125I-ULMA for 2 h at 4° C. Following washes, cells were lysed and count per minute was analyzed in a gamma counter. 200 fold molar excess of unlabeled ULMA was used for each concentration of radiolabeled ULMA for determining nonspecific activity. Count per minutes were normalized with total cellular protein content followed by further normalization with non-specific activity and plotted. Data is mean±SEM from three experiments performed in triplicates.
# Further validation of AdipoR-ULMA interaction and its quantitation was done using a radio-ligand saturation binding assay using ^125I-ULMA. ULMA was first radiolabeled using chloramines-T method. 10 μl of ^125I (20 MBq; BARC, Mumbai, India) was added to 100 μg GTDF in 5% acetic acid/methanol, then chloramine-T (Sigma, 4 μg in MilliQ H2O) was added, and the mixture was allowed to react at room temperature (24° C.) for 5 min. […] was used for protein estimation using standard Bradford assay and rest of the lysate was used for measuring radioactivity in a gamma-counter (Cole Palmer). The count per minute was normalized with protein concentration and was further normalized with non specific binding, which was determined for every concentration of ^125I-ULMA, using 200 fold molar excess of unlabeled ULMA.
# [2] = system: pAMPK, pACC and pP38; assay: AMPK, ACC and p38 phosphorylation by western blot in C2C12 myotubes; assay type: cell-based, mouse; details: 10 nM
# Protocol: A. ULMA induces rapid AMPK and p38MAPK signaling. C2C12 myotubes in 10 cm dishes were treated with vehicle (0.1% vol/vol DMSO; 0 min) or 10 nM ULMA for different time points ranging from 1 min to 24 h (final concentration of DMSO in all wells were 0.1% vol/vol). Following treatment, the cells were washed with ice-cold PBS and then lysed. The total protein was estimated by Bradford assay and equal amount of protein (50 μg) was resolved by denaturing polyacrylamide gel electrophoresis and western blotted to determine pAMPK, pACC and pP38 level. Total AMPK, total ACC or total P38 levels were used as loading controls. Data is representative of three independent experiments displaying identical pattern (right panel depicts densitometry from 3 experiments).
# B. AdipoR1 overexpression enhances ULMA effect on AMPK and p38 MAPK signaling. C2C12 myoblasts growing in T75 flasks were trypsinized and transfected with […] of either empty vector (pcDNA3) or AdipoR1 expression plasmid using lipofectamine LTX transfection reagent and then the cells were plated in 10 cm dishes. 24 h following transfection, cells were incubated in differentiation medium and maintained in the same medium for 96 h when the cells differentiated fully into myotubes. These cells were then treated with vehicle (DMSO) or ULMA (10 nM) for 10 mins. The cells were then lysed and western blotted for the indicated proteins. Data is representative of three independent experiments displaying identical pattern.
# C. Knockdown of AdipoR1 abrogates ULMA effect on AMPK and p38 signalling. C2C12 myotubes in 6 well plates were transfected with 100 nM non-silencing control or AdipoR1 siRNAs using DharmaFECT 1 transfection reagent (Thermo). 72 h following transfection, cells were treated with vehicle (DMSO) or ULMA (10 nM) for 10 min and were western blotted to evaluate pAMPK, pACC, p38, AdipoR1, and R2 status. Total AMPK, ACC, p38 and beta-actin were used as loading controls.
# C2C12 myotubes in 10 cm dishes were treated with vehicle (0.1% DMSO; 0 min) or 10 nM ULMA for different time points ranging from 1 min to 24 hour. Following treatment, the cells were washed with ice-cold PBS and then lysed in lysis buffer [1M NaCl, 50 mM HEPES and 0.1% triton X 100 containing 1× protease inhibitor cocktail and 1× phosphates inhibitor cocktail (Sigma)]. The total protein was estimated by Bradford assay and equal amount of protein (50 μg) was resolved by denaturing polyacrylamide gel electrophoresis and western blotted for determination of pAMPK, pACC and pP38 levels (in all the cases the primary antibodies were used in 1:1000 dilution and all the antibodies were from Cell signaling technology). Total AMPK, ACC and p38 expressions were also detected and used as loading controls (all the antibodies were from Cell signaling technology and were used in 1:1000 dilution). […] To evaluate if AdipoRs are indeed involved in the regulation of these pathways by ULMA, C2C12 myoblasts growing in T75 flasks were trypsinized and transfected with 10 μg of either empty vector (pcDNA3) or AdipoR1 expression plasmid using lipofectamine LTX transfection reagent and then the cells were plated in 10 cm dishes. 24 hours following transfection, cells were incubated in differentiation medium and were maintained in the same medium for 96 hours when the cells fully differentiated into myotubes. These cells were then treated with vehicle (DMSO) or ULMA (10 nM) for 10 min. The cells were then lysed (as mentioned above) and western blotted. […] This was further validated in knockdown experiments where C2C12 myotubes in 6 well plates were transfected with 100 nM non-silencing control or AdipoR1 siRNAs using DharmaFECT 1 transfection reagent (Thermo). 72 hours following transfection, cells were treated with vehicle (DMSO) or ULMA (10 nM) for 10 min and were western blotted to evaluate pAMPK, pACC, pP38, AdipoR1, and R2 status.
smiles,measurement,setting,value
"O=C1c2c(cc(O)c([C@@H]3O[C@H](CO)[C@@H](O)[C@H](O)[C@H]3O)c2O)O[C@@H](c2ccc(O)c(O)c2)[C@@H]1O [ULMA, (2S,3S)-(+)-3′,4′,5,7-tetrahydroxydihydroflavonol-6-C-β-D-glucopyranoside]",maximum binding (BMAX),[1],1410 fmol/mg of protein
same,Kd,"[1]; 2 hours, ice cold, read-out: dissociation constant (Kd)",4.9 nM
same,phosphorylation of ACC,[2]; 1 min to 24 hour,rapid and robust phosphorylation
same,phosphorylation of AMPK,[2]; 1 min to 24 hour,rapid and robust phosphorylation
same,phosphorylation of p38,[2]; 1 min to 24 hour,phosphorylated
same,"response on AMPK, ACC and p38 phosphorylation with siAdipoR1","[2]; 10 min, 100 nM AdipoR1 siRNA",completely obliterated ULMA response
same,effect on AMPK and p38 MAPK signaling with AdipoR1 overexpression,"[2]; 10 min, AdipoR1 expression plasmid vs empty vector",robust increase in effect of ULMA
same,"AMPK, ACC and p38 phosphorylation with control siRNA (siC)","[2]; 10 min, non-silencing control siRNA","phosphorylated AMPK, ACC and P38"
